In US11401247B2, “Thiazole-5-carboxylic acid derivative and preparation method and use thereof” (XIANGBEI WELMAN PHARMACEUTICAL CO., LTD, priority 2018, dated 2022):
Where two headings read alike, the source gives them in different places.

Legend:
in vivo = details: mouse, po
ICR mice = details: for Autopsy results of survival animals: 3000 mg/kg ig; for Abnormal reactions within 12 hours from ig administration: F compounds 3000 mg/kg; for Number of dead animals: ig 3000 mg/kg, 10 mice; for toxic reactions, preliminary experiments / death, preliminary experiments: intragastric 1600 mg/kg
hyperuricemia rats = test: pharmacodynamic screening in rat hyperuricemia model (exogenous uric acid administered, uric acid decomposition inhibited); type: in vivo, SD rats; details: for Serum uric acid level, Value after 3 h of drug administration: 10 mg/kg oral, 3 h after first administration, model group 174.4 ± 39.9, blank 53.9 ± 12.8; for uric acid-lowering effect (in words): 3 h after drug administration, febuxostat and ethyl ester 14 mg/kg oral; for uric acid-lowering effect (in words) / p, uric acid level 3 h after drug administration compared with the blank group: F compounds 10 mg/kg; for p, uric acid level 3 h after drug administration compared with the blank group: febuxostat 14 mg/kg oral
[1] = formal test, febuxostat high-dose group
[2] = formal test, all dose groups, febuxostat high-dose group

Structure (SMILES)	LD50 at 14 days (in vivo)	LD50 at 14 days (in vivo; 3000 mg/kg)	Autopsy results of survival animals (ICR mice; formal test)	Abnormal reactions within 12 hours from ig administration (ICR mice; [1])	Number of dead animals (ICR mice)	toxic reactions, preliminary experiments (ICR mice; mice)	animal deaths within 24 hours from the administration (ICR mice; mouse, in vivo)	Serum uric acid level, Value after 3 h of drug administration (hyperuricemia rats)	uric acid-lowering effect (in words) (hyperuricemia rats)	p, uric acid level 3 h after drug administration compared with the blank group (hyperuricemia rats)	animal deaths within 24 hours from the administration (ICR mice; [2])	death, preliminary experiments (ICR mice; mice)	LD50/Maximum dose (ICR mice; ig once, mice, 14 days observation, Bliss method, febuxostat: LD50, F compounds: maximum administration dose, no deaths)
Cc1nc(-c2ccc(OCC(C)C)c(C#N)c2)sc1C(=O)OCC(O)CO (centres unmarked) [Compound F-1B]	3000 mg/kg	≥ 3000 mg/kg	No obvious abnormalities were observed in the organs	no abnormalities were observed	0	no obvious toxicity symptom was observed	no animal deaths were observed	67.5 ± 19.4^a3b3 μmol/L	very obvious uric acid-lowering effects	no significant difference	–	–	–
Cc1nc(-c2ccc(OCC(C)C)c(C#N)c2)sc1C(=O)NC1C(O)OC(CO)C(O)C1O (centres unmarked) [Compound F-4A]	3000 mg/kg	≥ 3000 mg/kg	No obvious abnormalities were observed in the organs	no abnormalities were observed	0	no obvious toxicity symptom was observed	no animal deaths were observed	71.4 ± 19.6^a3b3c1 μmol/L	–	–	–	–	–
Cc1nc(-c2ccc(OCC(C)C)c(C#N)c2)sc1C(=O)N1CCC[C@H]1C(=O)O [Compound F-2D]	3000 mg/kg	≥ 3000 mg/kg	No obvious abnormalities were observed in the organs	no abnormalities were observed	0	no obvious toxicity symptom was observed	–	69.1 ± 23.4^a3b3c1 μmol/L	–	–	no animal deaths were observed	no animal died	–
Cc1nc(-c2ccc(OCC(C)C)c(C#N)c2)sc1C(=O)NCC(=O)O [Compound F-2A]	3000 mg/kg	≥ 3000 mg/kg	No obvious abnormalities were observed in the organs	no abnormalities were observed	0	no obvious toxicity symptom was observed	–	78.3 ± 25.1^a3b3c2 μmol/L	–	< 0.01	no animal deaths were observed	no animal died	–
Cc1nc(-c2ccc(OCC(C)C)c(C#N)c2)sc1C(=O)OCCCN(C)CCCO [Compound F-3B]	3000 mg/kg	≥ 3000 mg/kg	No obvious abnormalities were observed in the organs	no abnormalities were observed	0	no obvious toxicity symptom was observed	–	66.3 ± 17.1^a3b3 μmol/L	very obvious uric acid-lowering effects	no significant difference	no animal deaths were observed	no animal died	–
Cc1nc(-c2ccc(OCC(C)C)c(C#N)c2)sc1C(=O)NC(C)C(=O)O (centres unmarked) [Compound F-2B]	–	–	No obvious abnormalities were observed in the organs	no abnormalities were observed	0	no obvious toxicity symptom was observed	–	70.3 ± 16.4^a3b3c1 μmol/L	–	–	no animal deaths were observed	no animal died	3000 mg/kg
